Experimental data: patent US20200399262A1, “COMPOUNDS FOR INHIBITING PROTEIN DEGRADATION AND METHODS OF USE THEREOF IN THE TREATMENT OF CANCER” (PI Therapeutics Ltd, priority 2018, published 2020)

How the values were obtained:
Assay type in all cases: cell-based
ACHN = experiment: NCI60 screen cytotoxicity; settings: Homo sapiens, Renal cancer, read-out: Compound B1 EC50
SNB-19 = experiment: NCI60 screen cytotoxicity; settings: Homo sapiens, CNS, read-out: Compound B1 EC50
OVCAR-5 = experiment: NCI60 screen cytotoxicity; settings: Homo sapiens, Ovarian cancer, read-out: Compound B1 EC50
K-562 = experiment: NCI60 screen cytotoxicity; settings: Homo sapiens, K562, Leukemia, read-out: Compound B1 EC50
NCI-H23 = experiment: NCI60 screen cytotoxicity; settings: Homo sapiens, Lung cancer, read-out: Compound B1 EC50
U251 = experiment: NCI60 screen cytotoxicity; settings: Homo sapiens, U-251, CNS, read-out: Compound B1 EC50
SK-OV-3 = experiment: NCI60 screen cytotoxicity; settings: Homo sapiens, Ovarian cancer, read-out: Compound B1 EC50
LOX IMVI = experiment: NCI60 screen cytotoxicity; settings: Homo sapiens, Melanoma, read-out: Compound B1 EC50
SK-MEL-28 = experiment: NCI60 screen cytotoxicity; settings: Homo sapiens, Melanoma, read-out: Compound B1 EC50
BT-549 = experiment: NCI60 screen cytotoxicity; settings: Homo sapiens, Breast cancer, read-out: Compound B1 EC50
A-549 = experiment: NCI60 screen cytotoxicity; settings: Homo sapiens, A549, Lung cancer, read-out: Compound B1 EC50
DU-145 = experiment: NCI60 screen cytotoxicity; settings: Homo sapiens, Prostate cancer, read-out: Compound B1 EC50
HCC-2998 = experiment: NCI60 screen cytotoxicity; settings: Homo sapiens, Colon cancer, read-out: Compound B1 EC50
HT-29 = experiment: NCI60 screen cytotoxicity; settings: Homo sapiens, Colon cancer, read-out: Compound B1 EC50
MCF-7 = experiment: NCI60 screen cytotoxicity; settings: Homo sapiens, MCF7, Breast cancer, read-out: Compound B1 EC50
HCT-116 = experiment: NCI60 screen cytotoxicity; settings: Homo sapiens, Colon cancer, read-out: Compound B1 EC50
MOLT-4 = experiment: NCI60 screen cytotoxicity; settings: Homo sapiens, Leukemia, read-out: Compound B1 EC50
HS-578T = experiment: NCI60 screen cytotoxicity; settings: Homo sapiens, Breast cancer, read-out: Compound B1 EC50
SF-539 = experiment: NCI60 screen cytotoxicity; settings: Homo sapiens, CNS, read-out: Compound B1 EC50
UACC-62 = experiment: NCI60 screen cytotoxicity; settings: Homo sapiens, Melanoma, read-out: Compound B1 EC50
[1] = test system: UPR branches (PERK, ATF6 and IRE1alpha); experiment: UPR activation in MM1.S cells (immunoblot, RT-PCR); settings: 200 nM
Description: MM1.S cells were treated with 200 nM of Compound B1 for the indicated time points. Following the stated incubation periods the cells were harvested, lysed and resolved on SDS-PAGE gel. Proteins were transferred to PVDF membrane and immunoblotted with the indicated antibodies: FIG. 7A: anti phospho JNK, FIG. 7B: anti JNK, FIG. 7C: anti ATF6. FIG. 7D: anti phospho eIF2alpha, FIG. 7E: anti eIF2alpha, FIG. 7F: anti ATF4. XBP1 splicing was performed on cDNA (FIG. 7G), RNA was extracted cDNA was generated by RT-PCR and XPB1 transcript was amplified by PCR with gene specific primers. Splicing was detected by differential migration of XBP1 transcript on agarose gel. Transcriptional changes of CHOP (FIG. 7K) and ATF4 (FIG. 7J) were estimated by quantitative PCR with gene specific primers. Relative gene expression levels were normalized to GAPDH. Cleaved form of ATF6 and spliced XBP1 is indicated with arrow.
Protein analysis by Western blot. At the end of treatment period, the cells were lysed with M-PER mammalian protein extraction reagent (ThermoFisher Scientific) supplemented with protease inhibitors. Equal protein amounts were resolved on pre-cast SDS-PAGE (ThermoFisher Scientific) and transferred to a PVDF membrane. The membrane was immunoblotted with antibodies as indicated. The following antibodies were used: Ub MAb (SC-8017, Santa-Cruz), ATF4, ATF6, phospho JNK, JNK (Cell signaling); eIF2alpha, phospho eIF2alpha (Novus).
RT-PCR: MM cells were treated with compounds as indicated. Total RNA was extracted using RNAeasy kit (QIAGEN) and cDNA was synthesized using reverse transcriptase (Quantaces biosciences). mRNA levels of ATF4 and CHOP were determined by quantitative PCR using a StepOnePlus™ Real Time PCR system (Life Technologies) with gene specific assays (Thermo Scientific). XBP splicing were addressed by differential migration of XBP-1 gene transcript full size versus spliced form on 2% Agarose gel.

[2] = test system: autophagic vacuoles in MM1.S cells; experiment: Autophagy quantification with CYTO-ID dye, flow cytometry; settings: 0.2 μM, 5 hours, vs vehicle
Description: MM1.S cells were treated with 0.2 μM Compound B1 or vehicle (DMSO) for 5 h. Detection of autophagy vesicles was done by CYTO-ID® green autophagy dye that selectively labels autophagic vacuoles. The samples were analyzed using flow cytometer and the data were plotted on histogram: cell counts vs. FITC fluorescence intensity.
Autophagy Quantification: Quantification of autophagosomes were done with CytoID (ENZO). CYTO-ID® Autophagy Detection Kit measures autophagic vacuoles and monitors autophagic flux in live cells using a dye that selectively labels autophagic vacuoles. The probe is a cationic amphiphilic tracer dye that rapidly partitions into cells in a similar manner as drugs that induce phospholipidosis. MM1.S cells were treated with Compound B1 or vehicle for 5 hours. Following treatment period the cells were harvested and stained with CytoID dye according to manufacturer instructions. Autophagosomes were analyzed and quantified using flow cytometer (Miltenyi). Data of cell counts were plotted as FITC (FL1) fluorescence intensity.

## CN(C)CC(=O)NCC(=O)N1C/C(=C\c2ccc(C#N)cc2)C(=O)/C(=C/c2ccc(C#N)cc2)C1 [Compound B1]
ACHN
  EC50: < 300 nM
SNB-19
  EC50: 300 to 1000 nM
OVCAR-5
  EC50: < 300 nM
K-562
  EC50: < 300 nM
NCI-H23
  EC50: < 300 nM
U251
  EC50: < 300 nM
SK-OV-3
  EC50: < 300 nM
LOX IMVI
  EC50: < 300 nM
SK-MEL-28
  EC50: 300 to 1000 nM
BT-549
  EC50: < 300 nM
A-549
  EC50: 300 to 1000 nM
DU-145
  EC50: < 300 nM
HCC-2998
  EC50: < 300 nM
HT-29
  EC50: 300 to 1000 nM
MCF-7
  EC50: 300 to 1000 nM
HCT-116
  EC50: < 300 nM
MOLT-4
  EC50: < 300 nM
HS-578T
  EC50: 300 to 1000 nM
SF-539
  EC50: 300 to 1000 nM
UACC-62
  EC50: 300 to 1000 nM
[1]; after 1 hr of treatment
  eIF2alpha phosphorylation (PERK activation): increases eI2Falpha phosphorylation
[1]; differential migration of XBP gene transcript
  XBP splicing: Spliced XBP was detected
[1]; immunoblot
  ATF6 full size form: short term upregulation of ATF6 full size form followed by a rapid decline
[1]; immunoblot, no change in total protein levels
  phosphorylated JNK: significant upregulation in phosphorylated JNK
[1]; peaking at 3 hr post treatment
  ATF4 and CHOP transcription (quantitative PCR): transcriptional increase of both ATF4 and CHOP
[2]
  autophagosomal vesicles (CYTO-ID fluorescence): significantly lower fluorescent dye then vehicle treated cells
